# From US10105437B2, “Epitopes related to coeliac disease” (BTG International Limited, priority 2004, dated 2018)
# Test system: PBMC from HLA-DQ2+ coeliac subjects
# Assay: Interferon gamma ELISPOT, secalin 20mer first round library after rye challenge
# Format: cell-based, human
# Details: 20mers pre-treated with tTG; day 6 PBMC; 14 subjects
# Experimental: (§1) Peptides were initially dissolved in aqueous acetonitrile (50%). Peptides in aqueous acetonitrile were transferred to sterile 96-well plates and diluted in sterile PBS with 1 mM calcium (250 mcg/ml) and then incubated with tTG (25 mcg/ml) (Sigma T5398) for 6 h 37° C. and then stored frozen (−20° C.) until use.
# (§2) IFNγ ELISpot assays (Mabtech, Sweden) were performed in 96-well plates (MAIP S-45, Millipore) in which each well contained 25 mcl of peptide solution and 100 mcl of PBMC (2-8×10^5/well) in RPMI containing 10% heat inactivated human AB serum. After development and drying, IFNγ ELISpot plates were assessed using the MAIP automated ELISpot plate counter. Data was then analysed according to a novel algorithm (Expectation Maximization: EM) to define and quantify interferon-gamma responses to 9mer sequences contained within the peptide library (see FIG. 3 and below). 9mer peptides were then rationalised according to an algorithm that assumes redundancy in T-cell recognition, the “IterativeCluster” algorithm (see FIG. 4 and below), by allowing groups of amino acids with similar chemical properties at any one position in the 9mer, or for glutamate to replace glutamine at any position (assuming deamidation may have occurred).
# Secalin and hordein 20mer first round peptide libraries were assessed 3 days after completing rye (bread, 100 g/d for 3 days) or barley (boiled, 100 g/d for 3 days) challenge (“day 6” PBMC interferon gamma ELISPOT responses). Although iterative analysis using 2nd and 3rd round peptide libraries to define epitopes has not yet been performed, the 20mers pre-treated with tTG found to induce “potent” responses shared substantial structural similarity to the bioactive peptides identified after wheat challenge. […] The dominant (>70% maximal response) 20mer after rye challenge was usually […] (SEQ ID NO: 1769) (8/14 subjects), or occasionally […] (SEQ ID NO: 1770) (4/14), […] (SEQ ID NO: 1771) (1/14), […] (SEQ ID NO: 1772) (1/14) and/or […] (SEQ ID NO: 1773) (1/14). Additional peptides noted for greater than 40% maximal response in at least 1 subject include: […]
row,Sequence,subjects in whom 20mer was dominant (>70% maximal response) after rye challenge
1,PQQLFPLPQQPFPQPQQPFP (Description of Artificial Sequence: Synthetic gluten peptide) [rye secalin 20mer],8/14
2,PQTQQPQQPFPQPQQPQQLF (Description of Artificial Sequence: Synthetic gluten peptide) [rye secalin 20mer],1/14
3,QEQREGVQILLPQSHQQLVG (Description of Artificial Sequence: Synthetic gluten peptide) [rye secalin 20mer],1/14
4,QPFPQPQQPTPIQPQQPFPQ (Description of Artificial Sequence: Synthetic gluten peptide) [rye secalin 20mer],4/14
5,QQPQQLFPQTQQSSPQQPQQ (Description of Artificial Sequence: Synthetic gluten peptide) [rye secalin 20mer],1/14

# Same assay, conditions: after rye challenge; 14 subjects
Sequence,number of subjects with > 70% maximal response,subjects with greater than 40% maximal response
FPLQPQQPFPQQPEQIISQQ (Description of Artificial Sequence: Synthetic gluten peptide) [rye secalin 20mer],1,5/14
FPQQPQQPFPQPQQQLPLQP (Description of Artificial Sequence: Synthetic gluten peptide) [rye secalin 20mer],2,3/14
NMQVGPSGQVEWPQQQPLPQ (Description of Artificial Sequence: Synthetic gluten peptide) [rye secalin 20mer],1,2/14
PQQPFPQQPEQIIPQQPQQP (Description of Artificial Sequence: Synthetic gluten peptide) [rye secalin 20mer],3,5/14
PQQPQRPFAQQPEQIISQQP (Description of Artificial Sequence: Synthetic gluten peptide) [rye secalin 20mer],1,3/14
QQLPLQPQQPFPQPQQPIPQ (Description of Artificial Sequence: Synthetic gluten peptide) [rye secalin 20mer],2,6/14
QQPFLLQPQQPFSQPQQPFL (Description of Artificial Sequence: Synthetic gluten peptide) [rye secalin 20mer],1,1/14
QQPQQPFPLQPQQPVPQQPQ (Description of Artificial Sequence: Synthetic gluten peptide) [rye secalin 20mer],1,3/14
QQPSIQLSLQQQLNPCKNVL (Description of Artificial Sequence: Synthetic gluten peptide) [rye secalin 20mer],1,1/14
QTQQSIPQPQQPFPQPQQPF (Description of Artificial Sequence: Synthetic gluten peptide) [rye secalin 20mer],1,3/14
SIPQPQQPFPQPQQPFPQSQ (Description of Artificial Sequence: Synthetic gluten peptide) [rye secalin 20mer],1,4/14

# Test system: PBMC from HLA-DQ2+ coeliac subjects
# Assay: Interferon gamma ELISPOT, hordein 20mer first round library after barley challenge
# Format: cell-based, human
# Details: 17 subjects
# Experimental: as §1, §2
# Secalin and hordein 20mer first round peptide libraries were assessed 3 days after completing rye (bread, 100 g/d for 3 days) or barley (boiled, 100 g/d for 3 days) challenge (“day 6” PBMC interferon gamma ELISPOT responses). Although iterative analysis using 2nd and 3rd round peptide libraries to define epitopes has not yet been performed, the 20mers pre-treated with tTG found to induce “potent” responses shared substantial structural similarity to the bioactive peptides identified after wheat challenge. […] The dominant (>70% maximal response) 20mer after rye challenge was usually […] (SEQ ID NO: 1769) (8/14 subjects), or occasionally […] (SEQ ID NO: 1770) (4/14), […] (SEQ ID NO: 1771) (1/14), […] (SEQ ID NO: 1772) (1/14) and/or […] (SEQ ID NO: 1773) (1/14). Additional peptides noted for greater than 40% maximal response in at least 1 subject include:
# Typically, the dominant peptides after barley challenge included one of six peptide motifs, or were one of eight other individual 20mers “dominant” in only one of 17 subjects after barley challenge. The six motifs identified:
# The barley hordein peptides showing at least 40% maximal peptide response in at least one subject include the following, wherein an asterisk indicates the eight individual peptides showing maximal response in a single individual: […]
Sequence,number of subjects with > 70% maximal response,subjects with at least 40% maximal peptide response
YPQQPQPFPQQPIPQQPQPY (Description of Artificial Sequence: Synthetic gluten peptide) [barley hordein 20mer],2,6/17
